According to the supplement of paper PMC10307832:

How the values were obtained:
Experiment in all cases: relative viability (nuclei count vs DMSO), 5 days (fraction); higher = more cells survive
Crenolanib + Pictilisib = compound: CC1(COc2ccc3c(c2)ncn3-c2ccc3cccc(N4CCC(N)CC4)c3n2)COC1 [Crenolanib] + CS(=O)(=O)N1CCN(Cc2cc3nc(-c4cccc5[nH]ncc45)nc(N4CCOCC4)c3s2)CC1 [Pictilisib] (partner 1 µM)
Method in brief: (§1)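 Medians of duplicate plates are given as relative viability. That measure is the nuclei count in treated wells divided by the count in vehicle wells. Counts were taken on 4× images of lung cancer cell lines in 1536-well plates, 5 days after pin-tool dosing the day after seeding with one drug alone or a fixed anchor-drug dose plus five library-drug doses (not always all listed) in √10 steps.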

Crenolanib + OSI-027 = compound: CC1(COc2ccc3c(c2)ncn3-c2ccc3cccc(N4CCC(N)CC4)c3n2)COC1 [Crenolanib] + COc1cccc2cc(-c3nc([C@H]4CC[C@H](C(=O)O)CC4)n4ncnc(N)c34)[nH]c12 [OSI-027] (partner 0.5 µM)
Method in brief: as §1

Crenolanib + Tozasertib = compound: CC1(COc2ccc3c(c2)ncn3-c2ccc3cccc(N4CCC(N)CC4)c3n2)COC1 [Crenolanib] + Cc1cc(Nc2cc(N3CCN(C)CC3)nc(Sc3ccc(NC(=O)C4CC4)cc3)n2)n[nH]1 [Tozasertib] (partner 0.1 µM)
Method in brief: as §1

Crenolanib + Linsitinib = compound: CC1(COc2ccc3c(c2)ncn3-c2ccc3cccc(N4CCC(N)CC4)c3n2)COC1 [Crenolanib] + C[C@]1(O)C[C@@H](c2nc(-c3ccc4ccc(-c5ccccc5)nc4c3)c3c(N)nccn32)C1 [Linsitinib] (partner 1 µM)
Method in brief: as §1

Cell Line	relative viability (Crenolanib + Pictilisib; first compound 0.01 µM)	relative viability (Crenolanib + Pictilisib; first compound 0.03162 µM)	relative viability (Crenolanib + Pictilisib; first compound 0.1 µM)	relative viability (Crenolanib + Pictilisib; first compound 0.3162 µM)	relative viability (Crenolanib + Pictilisib; first compound 1 µM)	relative viability (Crenolanib + OSI-027; first compound 0.01 µM)	relative viability (Crenolanib + OSI-027; first compound 0.03162 µM)	relative viability (Crenolanib + OSI-027; first compound 0.1 µM)	relative viability (Crenolanib + OSI-027; first compound 0.3162 µM)	relative viability (Crenolanib + OSI-027; first compound 1 µM)	relative viability (Crenolanib + Tozasertib; first compound 0.01 µM)	relative viability (Crenolanib + Tozasertib; first compound 0.03162 µM)	relative viability (Crenolanib + Tozasertib; first compound 0.1 µM)	relative viability (Crenolanib + Tozasertib; first compound 0.3162 µM)	relative viability (Crenolanib + Tozasertib; first compound 1 µM)	relative viability (Crenolanib + Linsitinib; first compound 0.01 µM)	relative viability (Crenolanib + Linsitinib; first compound 0.03162 µM)	relative viability (Crenolanib + Linsitinib; first compound 0.1 µM)	relative viability (Crenolanib + Linsitinib; first compound 0.3162 µM)	relative viability (Crenolanib + Linsitinib; first compound 1 µM)
201T	0.724	0.704	0.695	0.689	0.634	0.505	0.605	0.695	0.763	0.692	1.04	1.02	0.856	0.733	0.945	1.05	1.04	1.01	1.04	1.11
A549	0.608	0.545	0.554	0.689	0.506	–	–	–	–	–	–	–	–	–	–	0.674	0.598	0.529	0.69	0.533
A-427	0.747	0.674	0.642	0.582	0.651	0.519	0.54	0.421	0.48	0.431	0.209	0.237	0.224	0.181	0.225	1.1	1.06	1.08	1.15	1.15
ABC-1	0.837	0.63	0.83	0.692	0.686	0.526	0.536	0.522	0.531	0.45	0.177	0.202	0.179	0.162	0.133	0.79	0.797	0.946	1.19	1.04
BEN	0.664	0.574	0.51	0.522	0.609	0.302	0.339	0.305	0.321	0.314	0.524	0.476	0.474	0.484	0.464	1.03	0.895	0.83	0.848	0.911
CAL-12T	0.45	0.407	0.519	0.454	0.44	0.844	0.634	0.643	0.712	0.693	0.314	0.349	0.294	0.343	0.36	0.967	0.7	0.768	0.869	0.846
COR-L23	0.777	0.756	0.677	1.03	0.654	0.721	0.849	0.654	0.81	0.714	0.214	0.22	0.201	0.206	0.185	1.06	1.02	0.884	1.15	0.88
COR-L 105	0.455	0.363	0.341	0.514	0.411	0.842	0.783	0.642	1	0.691	0.379	0.426	0.365	0.38	0.358	0.873	1.09	0.748	1.22	0.92
Calu-6	1.04	0.91	0.978	1.15	0.968	–	–	–	–	–	–	–	–	–	–	1.01	0.813	0.873	1.03	0.936
ChaGo-K-1	0.419	0.627	0.736	0.562	0.7	0.659	0.634	0.572	0.631	0.594	0.26	0.264	0.234	0.209	0.22	–	–	–	–	–
EBC-1	0.469	0.423	0.333	0.357	0.422	–	–	–	–	–	–	–	–	–	–	0.946	0.832	0.85	0.978	0.996
EKVX	0.466	0.491	0.364	0.487	0.442	0.737	0.78	0.69	0.683	0.737	0.465	0.346	0.428	0.364	0.359	1.05	1.1	0.954	1.12	1.01
EMC-BAC-2	0.552	0.523	0.492	0.578	0.495	0.438	0.376	0.411	0.424	0.398	0.312	0.251	0.322	0.239	0.309	0.826	0.874	0.805	0.821	0.808
EPLC-272H	–	0.327	0.318	0.255	0.338	0.315	0.288	0.249	0.296	0.329	0.385	0.352	0.257	0.286	0.377	–	1.19	0.982	1.18	1.06
H3255	0.461	0.475	0.479	0.559	0.496	0.586	0.544	0.514	0.573	0.588	0.672	0.609	0.579	0.671	0.611	0.923	0.872	0.92	0.938	1.04
HARA	0.327	0.369	0.283	0.289	0.353	0.639	0.501	0.319	0.591	0.396	0.138	0.131	0.145	0.116	0.121	0.914	0.886	0.983	0.975	0.926
HCC-15	0.695	0.731	0.696	0.644	0.671	0.742	0.695	0.676	0.616	0.393	0.397	0.313	0.444	0.378	0.427	0.832	0.919	0.889	0.926	0.861
HCC-44	0.672	0.649	0.575	0.571	0.492	0.498	0.496	0.611	0.519	0.434	1.07	0.781	0.89	0.578	0.57	0.674	0.67	0.638	0.673	0.629
HCC-78	0.24	0.223	0.239	0.216	0.237	0.433	0.32	–	0.345	0.338	0.366	0.395	–	0.406	0.368	0.654	0.512	0.496	0.518	0.506
HCC-366	0.182	0.164	0.132	0.143	0.137	0.978	0.861	0.837	0.893	0.75	0.167	0.148	0.154	0.144	0.108	0.628	0.738	0.574	0.819	0.69

Cell Line	relative viability (Crenolanib + Pictilisib; first compound 0.01 µM)	relative viability (Crenolanib + Pictilisib; first compound 0.03162 µM)	relative viability (Crenolanib + Pictilisib; first compound 0.1 µM)	relative viability (Crenolanib + Pictilisib; first compound 0.3162 µM)	relative viability (Crenolanib + Pictilisib; first compound 1 µM)	relative viability (Crenolanib + OSI-027; first compound 0.01 µM)	relative viability (Crenolanib + OSI-027; first compound 0.03162 µM)	relative viability (Crenolanib + OSI-027; first compound 0.1 µM)	relative viability (Crenolanib + OSI-027; first compound 0.3162 µM)	relative viability (Crenolanib + OSI-027; first compound 1 µM)	relative viability (Crenolanib + Tozasertib; first compound 0.01 µM)	relative viability (Crenolanib + Tozasertib; first compound 0.03162 µM)	relative viability (Crenolanib + Tozasertib; first compound 0.1 µM)	relative viability (Crenolanib + Tozasertib; first compound 0.3162 µM)	relative viability (Crenolanib + Tozasertib; first compound 1 µM)	relative viability (Crenolanib + Linsitinib; first compound 0.01 µM)	relative viability (Crenolanib + Linsitinib; first compound 0.03162 µM)	relative viability (Crenolanib + Linsitinib; first compound 0.1 µM)	relative viability (Crenolanib + Linsitinib; first compound 0.3162 µM)	relative viability (Crenolanib + Linsitinib; first compound 1 µM)
HCC-827	1.12	1.16	0.961	0.94	1.03	0.793	0.691	0.742	0.885	0.821	0.422	0.417	0.421	0.389	0.431	0.958	0.94	0.946	0.953	0.872
HOP-62	0.724	0.946	0.602	0.768	0.517	0.868	0.833	0.872	1.03	0.722	0.357	0.332	0.43	0.342	0.341	0.94	0.764	0.906	1.04	1.01
IA-LM	0.331	0.305	0.314	0.64	0.522	–	–	–	–	–	–	–	–	–	–	0.717	0.558	0.605	0.841	0.834
LC-2-ad	0.5	0.446	0.434	0.465	0.375	0.939	0.793	0.792	0.706	0.554	0.495	0.435	0.447	0.34	0.385	0.834	0.887	0.797	0.844	0.873
LCLC-97TM1	0.162	0.245	0.176	0.245	0.118	0.601	0.51	0.469	0.667	0.374	0.268	0.194	0.247	0.202	0.258	0.18	0.222	0.185	0.186	0.184
LCLC-103H	0.64	0.58	0.596	0.58	0.565	0.443	0.507	0.397	0.466	0.384	0.46	0.588	0.448	0.359	0.458	1.09	0.989	1.08	1.08	0.988
LK-2	0.586	0.461	0.662	0.473	0.615	0.208	0.195	0.233	0.17	0.183	0.164	0.179	0.19	0.177	0.171	0.675	0.626	0.624	0.425	0.562
LOU-NH91	0.595	0.525	0.473	0.56	0.53	0.765	0.729	0.642	0.717	0.624	0.767	0.655	0.653	0.431	0.616	1.02	0.908	0.822	0.887	0.936
NCI-H522	–	–	–	–	–	0.936	0.708	0.728	0.655	0.72	0.559	0.604	0.559	0.561	0.576	–	–	–	–	–
NCI-H1299	0.793	0.825	0.657	0.878	0.795	–	–	–	–	–	–	–	–	–	–	0.995	0.912	0.946	1.01	0.958
NCI-H1563	0.608	0.633	0.693	0.652	0.59	0.768	0.807	0.764	0.752	0.748	–	–	–	–	–	1.12	1.3	1.18	1.23	1.06
NCI-H1623	–	–	–	–	–	0.434	0.405	0.418	0.437	0.387	0.492	0.439	0.437	0.41	0.421	–	–	–	–	–
NCI-H1648	–	–	–	–	–	0.245	0.271	0.247	0.26	0.251	0.496	0.51	0.602	0.387	0.408	–	–	–	–	–
NCI-H1650	0.731	0.68	0.583	0.472	0.327	0.666	0.696	0.691	0.667	0.46	0.334	0.508	0.361	0.4	0.357	–	–	–	–	–
NCI-H1703	0.237	0.238	0.212	0.209	0.228	–	–	–	–	–	–	–	–	–	–	0.566	0.645	0.574	0.285	0.154
NCI-H1792	0.32	0.34	0.29	0.269	0.195	0.756	0.82	0.691	0.723	0.647	–	–	–	–	–	0.603	0.648	0.554	0.532	0.518
NCI-H2170	0.376	0.296	0.32	0.272	0.305	0.82	0.744	0.706	0.828	0.669	0.747	0.857	0.69	0.648	0.769	–	–	–	–	–
NCI-H2342	–	–	–	–	–	0.704	0.599	0.592	0.726	0.594	0.546	0.496	0.682	0.483	0.454	–	–	–	–	–
SW 900	–	–	–	–	–	0.677	0.575	0.46	0.657	0.342	0.62	0.675	0.547	0.457	0.516	–	–	–	–	–
